# In patent US7156906B2, “Impregnating agent” (Yara International ASA, priority 2001, dated 2007):
# Legend:
# Coniophora puteana [1] = assay: wood block test, % reduction of dry matter after exposure to fungi (EN 113); conditions: 3 months
# Experimental: Coniophora puteana and […] stillatus, the former is a standard organism in such tests prescribed for use in the European Standard Test EN 113. The tests were carried out in the following way: Small blocks of wood of the prescribed size 5 cm×2.5 cm×1.5 cm were numbered and then dried in an oven at 105° C. for 24 hours, cooled and weighed. That represented the dry weight at start. […] The blocks were impregnated with said solution and control blocks with sterile distilled water under vacuum for 10 minutes and then left in the impregnating solution for 1 hour, whereupon they were completely soaked with the impregnating solution. Subsequent to this impregnation the blocks were placed on filter paper for 30 minutes for drainage. The test blocks were then washed three times with distilled water for 2 minutes and then left in distilled water for 24 hours and finally washed three times with distilled water and then placed on filter paper for drainage. Four blocks were used for each concentration of impregnating solution with 2 blocks in each test flask, so-called Kolle flasks. The duration of the tests was 3 months. The blocks were then removed from the flasks and scraped clean of fungi, whereupon they were dried at 105° C. for 24 hours and weighed and percent reduction in dry weight was calculated.
# Coniophora puteana [2] = assay: growth of the fungi Coniophora puteana at varying concentrations; assay type: cell-based; conditions: FIG. 1
# From the text: (§1) Coniophora puteana and […] stillatus, the former is a standard organism in such tests prescribed for use in the European Standard Test EN 113.
# Dacrymyces stillatus = assay: growth of the fungi Dacrymyces stillatus at varying concentrations; assay type: cell-based; conditions: FIG. 2
# From the text: as §1
compound,measurement,setting,value
"O=CO.O=C[O-].[K+] [K-diformate, potassium diformate]",concentration necessary to obtain required effect on reduction of dry matter,"Coniophora puteana [1]; with subsequent washing of test blocks, FIG. 4",4.8%
same,concentration giving complete effect on reduction of dry matter,"Coniophora puteana [1]; without subsequent washing of test blocks, FIGS. 3 and 7",1.3–2%
same,concentration at which it acts as an effective fungicide (growth),Coniophora puteana [2],at least 0.13 weight %
same,concentration necessary to achieve complete retardation in growth,Dacrymyces stillatus,at least 0.18 weight %
